Values after ≈ are worked out from the molar mass of the structure shown.
What was measured:
Type in all cases: cell-based
[1] = system: Mycoplasma bovirhinis; assay: MIC, series dilution test, PPLO-medium (Table 1); conditions: 37°C, 18, 24 and 48 hours, read-out: Minimum inhibitory concentration (MIC)
Experimental: (§1) The mycoplasmae were tested in the series dilution test (PPLO-medium) at 37°C, with observations after 18, 24 and 48 hours.

[2] = system: Mycoplasma granularum; assay: MIC, series dilution test, PPLO-medium (Table 1); conditions: Acholeplasma granularum, 37°C, 18, 24 and 48 hours, read-out: Minimum inhibitory concentration (MIC)
Experimental: as §1

[3] = system: Mycoplasma gallisepticum; assay: MIC, series dilution test, PPLO-medium (Table 1); conditions: Mycoplasmoides gallisepticum, 37°C, 18, 24 and 48 hours, read-out: Minimum inhibitory concentration (MIC)
Experimental: as §1

[4] = system: Escherichia coli A261; assay: MIC, plate test (Table 1); conditions: 37°C, 24 hours, read-out: Minimum inhibitory concentration (MIC)
Experimental: (§2) The minimum inhibitory concentration (MIC) was determined in the plate test on a complete nutrient base of the following composition: 10 g of proteose-peptone, 10 g of veal infusion, 2 g of dextrose, 3 g of sodium chloride, 2 g of disodium phosphate, 1 g of sodium acetate, 0.01 g of adenine sulphate, 0.01 g of guanine hydrochloride, 0.01 g of uracil, 0.01 g. of xantin, 12 g of agar-agar and 1 liter of water.
(§3) The incubation temperature was 37°C and the incubation time was 24 hours.

[5] = system: Staphylococcus aureus 133; assay: MIC, plate test (Table 1); conditions: 37°C, 24 hours, read-out: Minimum inhibitory concentration (MIC)
Experimental: as §2, §3

[6] = system: Salmonella species; assay: MIC, plate test (Table 1); conditions: 37°C, 24 hours, read-out: Minimum inhibitory concentration (MIC)
Experimental: as §2, §3

[7] = system: Streptococcus pyogenes; assay: MIC, plate test (Table 1); conditions: with serum, 37°C, 24 hours, read-out: Minimum inhibitory concentration (MIC)
Experimental: as §2, §3

[8] = system: Pseudomonas aeruginosa B; assay: MIC, plate test (Table 1); conditions: 37°C, 24 hours, read-out: Minimum inhibitory concentration (MIC)
Experimental: as §2, §3

[9] = system: Klebsiella 63; assay: MIC, plate test (Table 1); conditions: 37°C, 24 hours, read-out: Minimum inhibitory concentration (MIC)
Experimental: as §2, §3

[10] = system: Escherichia coli C165; assay: MIC, plate test (Table 1); conditions: 37°C, 24 hours, read-out: Minimum inhibitory concentration (MIC)
Experimental: as §2, §3

[11] = system: Pseudomonas aeruginosa w; assay: MIC, plate test (Table 1); conditions: 37°C, 24 hours, read-out: Minimum inhibitory concentration (MIC)
Experimental: as §2, §3

[12] = system: Proteus vulgaris 1017; assay: MIC, plate test (Table 1); conditions: 37°C, 24 hours, read-out: Minimum inhibitory concentration (MIC)
Experimental: as §2, §3

[13] = system: Klebsiella 8085; assay: MIC, plate test (Table 1); conditions: 37°C, 24 hours, read-out: Minimum inhibitory concentration (MIC)
Experimental: as §2, §3

[14] = system: Mycobacterium tuberculosis; assay: MIC, series dilution test, Jenssen egg medium; conditions: 37°C, read-out: minimum inhibitory concentration
Experimental: The compounds of Examples 12 and 13 show minimum inhibitory concentrations of 32 γ/ml of nutrient medium in the series dilution test, Jenssen egg medium, 37°C, against Mycobacterium tuberculosis.

[15] = system: Pseudomonas aeruginosa w; assay: Turbidity test in Mueller-Hinton nutrient solution; conditions: 100 γ/ml, 24 hours, 37°C
[16] = system: Proteus indole-positive, species; assay: Turbidity test in Mueller-Hinton nutrient solution; conditions: 100 γ/ml, 24 hours, 37°C
[17] = system: Escherichia coli C 165; assay: Turbidity test in Mueller-Hinton nutrient solution; conditions: 100 γ/ml, 24 hours, 37°C
[18] = system: Escherichia coli 14; assay: Turbidity test in Mueller-Hinton nutrient solution; conditions: 100 γ/ml, 24 hours, 37°C
[19] = system: Streptococcus pyogenes W; assay: Turbidity test in Mueller-Hinton nutrient solution; conditions: 100 γ/ml, 24 hours, 37°C
[20] = system: Serratia species; assay: Turbidity test in Mueller-Hinton nutrient solution; conditions: 100 γ/ml, 24 hours, 37°C
[21] = system: Clostridium botulinium
[22] = system: Pasteurella pseudotuberculosis; conditions: 100 γ/ml, 24 hours, 37°C
[23] = system: Proteus vulgaris 1017; assay: Turbidity test in Mueller-Hinton nutrient solution; conditions: 100 γ/ml, 24 hours, 37°C
[24] = system: Corynebacterium diphtheriae gravis; assay: Turbidity test in Mueller-Hinton nutrient solution; conditions: 100 γ/ml, 24 hours, 37°C
[25] = system: Clostridium tetani; conditions: 100 γ/ml, 24 hours, 37°C
[26] = system: Neisseria catarrhalis species; assay: Turbidity test in Mueller-Hinton nutrient solution; conditions: 100 γ/ml, 24 hours, 37°C
[27] = system: Borrelia species; assay: Turbidity test in Mueller-Hinton nutrient solution; conditions: 100 γ/ml, 24 hours, 37°C
[28] = system: Diplococcus pneumoniae species; assay: Turbidity test in Mueller-Hinton nutrient solution; conditions: 100 γ/ml, 24 hours, 37°C
[29] = system: Enterobacter species; assay: Turbidity test in Mueller-Hinton nutrient solution; conditions: 100 γ/ml, 24 hours, 37°C
[30] = system: Bacteroides species; assay: Turbidity test in Mueller-Hinton nutrient solution; conditions: 100 γ/ml, 24 hours, 37°C
[31] = system: Haemophilus influenzae 281; assay: Turbidity test in Mueller-Hinton nutrient solution; conditions: 100 γ/ml, 24 hours, 37°C
[32] = system: Escherichia coli A 261; assay: Turbidity test in Mueller-Hinton nutrient solution; conditions: 100 γ/ml, 24 hours, 37°C
[33] = system: Salmonella species; assay: Turbidity test in Mueller-Hinton nutrient solution; conditions: 100 γ/ml, 24 hours, 37°C
Experimental: (§4) 100 γ/ml of the compounds according to the invention are dissolved in Mueller-Hinton nutrient solution, with addition of 0.1% of glucose. The nutrient solution contains […] microbes per ml. The mixture is incubated in glass test tubes for 24 hours at 37°C and after this time the degree of turbidity is determined.

[34] = system: Shigella species; assay: Turbidity test in Mueller-Hinton nutrient solution; conditions: 100 γ/ml, 24 hours, 37°C
Experimental: as §4

[35] = system: Pseudomonas aeruginosa B; assay: Turbidity test in Mueller-Hinton nutrient solution; conditions: 100 γ/ml, 24 hours, 37°C
[36] = system: Enterococcus species; assay: Turbidity test in Mueller-Hinton nutrient solution; conditions: 100 γ/ml, 24 hours, 37°C
[37] = system: Brucella species; conditions: 100 γ/ml, 24 hours, 37°C
[38] = system: Proteus indole-negative, species; assay: Turbidity test in Mueller-Hinton nutrient solution; conditions: 100 γ/ml, 24 hours, 37°C
[39] = system: Corynebacterium pyogenes M; assay: Turbidity test in Mueller-Hinton nutrient solution; conditions: 100 γ/ml, 24 hours, 37°C
[40] = system: Klebsiella K 63; assay: Turbidity test in Mueller-Hinton nutrient solution; conditions: 100 γ/ml, 24 hours, 37°C
[41] = system: Bordetella bronchiseptica; assay: Turbidity test in Mueller-Hinton nutrient solution; conditions: 100 γ/ml, 24 hours, 37°C
[42] = system: Klebsiella K 10; assay: Turbidity test in Mueller-Hinton nutrient solution; conditions: 100 γ/ml, 24 hours, 37°C
[43] = system: Lactobacillus species; assay: Turbidity test in Mueller-Hinton nutrient solution; conditions: 100 γ/ml, 24 hours, 37°C
[44] = system: Staphylococcus aureus 133; assay: Turbidity test in Mueller-Hinton nutrient solution; conditions: 100 γ/ml, 24 hours, 37°C
[45] = system: Aeromonas hydrophila species; assay: Turbidity test in Mueller-Hinton nutrient solution; conditions: 100 γ/ml, 24 hours, 37°C

CC(=O)Nc1n[n+]([O-])c2ccccc2[n+]1[O-] [Example 2, 3-(N-acetylamino)-benzo-1,2,4-triazine-1,4-di-N-oxide]
MIC [1]: < 0.125 µg/mL | MIC [2]: < 0.125 µg/mL | MIC [3]: < 0.125 µg/mL | MIC [4]: < 0.5 µg/mL | MIC [5]: < 0.5 µg/mL | MIC [6]: 1 µg/mL (≈ 4.54 µM) | MIC [7]: 1 µg/mL (≈ 4.54 µM) | MIC [8]: 4 µg/mL (≈ 18.2 µM) | MIC [9]: < 0.5 µg/mL | MIC [10]: < 0.5 µg/mL | MIC [11]: 8 µg/mL (≈ 36.3 µM) | MIC [12]: < 0.5 µg/mL | MIC [13]: < 0.5 µg/mL

CCCCCCCCCCCCCCCCCC(=O)Nc1n[n+]([O-])c2ccccc2[n+]1[O-] [Example 6]
MIC [14]: 32 µg/mL (≈ 72 µM) | MIC [4]: 128 µg/mL (≈ 288 µM) | MIC [5]: 128 µg/mL (≈ 288 µM) | MIC [6]: 128 µg/mL (≈ 288 µM) | MIC [7]: 128 µg/mL (≈ 288 µM) | MIC [8]: 128 µg/mL (≈ 288 µM) | MIC [9]: 128 µg/mL (≈ 288 µM) | MIC [10]: 128 µg/mL (≈ 288 µM) | MIC [11]: 128 µg/mL (≈ 288 µM) | MIC [12]: 128 µg/mL (≈ 288 µM) | MIC [13]: 8 µg/mL (≈ 18 µM)

O=C(NCCO)Nc1n[n+]([O-])c2ccccc2[n+]1[O-] [Example 14, 1'-[1,4-dioxo-benzo-1,2,4-triazin-3-yl]-3'-[β-hydroxy-ethyl]-urea]
turbidity after incubation [15]: remained free of turbidity | turbidity after incubation [16]: remained free of turbidity | turbidity after incubation [17]: remained free of turbidity | turbidity after incubation [18]: remained free of turbidity | turbidity after incubation [19]: remained free of turbidity | turbidity after incubation [20]: remained free of turbidity | turbidity after incubation [21]: remained free of turbidity | turbidity after incubation [22]: remained free of turbidity | turbidity after incubation [23]: remained free of turbidity | turbidity after incubation [24]: remained free of turbidity | turbidity after incubation [25]: remained free of turbidity | turbidity after incubation [26]: remained free of turbidity | turbidity after incubation [27]: remained free of turbidity | turbidity after incubation [28]: remained free of turbidity | turbidity after incubation [29]: remained free of turbidity | turbidity after incubation [30]: remained free of turbidity | turbidity after incubation [31]: remained free of turbidity | turbidity after incubation [32]: remained free of turbidity | turbidity after incubation [33]: remained free of turbidity | turbidity after incubation [34]: remained free of turbidity | turbidity after incubation [35]: remained free of turbidity | turbidity after incubation [36]: remained free of turbidity | turbidity after incubation [37]: remained free of turbidity | turbidity after incubation [38]: remained free of turbidity | turbidity after incubation [39]: remained free of turbidity | turbidity after incubation [40]: remained free of turbidity | turbidity after incubation [41]: remained free of turbidity | turbidity after incubation [42]: remained free of turbidity | turbidity after incubation [43]: remained free of turbidity | turbidity after incubation [44]: remained free of turbidity | turbidity after incubation [45]: remained free of turbidity

CC(=O)CC(=O)Nc1n[n+]([O-])c2ccccc2[n+]1[O-] [Example 4, 3-(N-acetoacetylamino)-benzo-1,2,4-triazine-1,4-di-N-oxide]
MIC [14]: 32 µg/mL (≈ 122 µM) | MIC [4]: 8 µg/mL (≈ 30.5 µM) | MIC [5]: 8 µg/mL (≈ 30.5 µM) | MIC [6]: 8 µg/mL (≈ 30.5 µM) | MIC [7]: 8 µg/mL (≈ 30.5 µM) | MIC [8]: 128 µg/mL (≈ 488 µM) | MIC [9]: 128 µg/mL (≈ 488 µM) | MIC [10]: 8 µg/mL (≈ 30.5 µM) | MIC [11]: 128 µg/mL (≈ 488 µM) | MIC [12]: 8 µg/mL (≈ 30.5 µM) | MIC [13]: 4 µg/mL (≈ 15.3 µM)
